# Laboratory results taken from patent US20190321496A1, “AGENTS AND METHODS FOR THE DIAGNOSIS AND TREATMENT OF DISEASES ASSOCIATED WITH EXTRACELLULAR MATRIX TURNOVER” (Baker IDI Heart and Diabetes Institute Holdings Limited, priority 2016, published 2019).
# What was measured:
# MMP14 = experiment: Assay of MMP14 activity (FRET peptide) in HT1080 cells treated with Naphthofluorescein; format: cell-based, human; settings: n=3, untreated cells 473.7±20.93
# Description: Detection of Cy 3.5 signals of the MMP14 FRET peptide was performed using the FLUOstar OPTIMA BMG LABTECH 96 microplate fluorescence reader standardized for optic settings of excitation 544 nm and emission 590 nm, temperature settings at 37° C., with readings taken every 10 minutes over a 120 minute duration and double orbital shaking at a width of 4 mm 1 second prior to each cycle. All confocal live cell studies were performed using the Nikon Air inverted microscope (Tokyo, Japan) with live cell imaging chamber (designed by Monash Micro imaging). Tissue sections were obtained by cryo-sectioning frozen tissue using the Leica CM1950 cryostat (Leica Microsystems, Germany).
# A peptide sequence that is preferentially cleaved by MMP14 was used to create a FRET probe with N terminal Cy3.5 and C terminal BHQ (Black Hole Quencher): Cy3.5 SGRIGFLRTACBHQ2 (SEQ ID NO:13). The presence of MMP14 activity cleaves this peptide and separates the Cy3.5 from BHQ. […] The cells were centrifuged at 4000 rcf for 5 minutes, cell pellet was resuspended in PBS containing calcium and magnesium and counted using a haemocytometer. […] The 96 well microplate was incubated at 37° C. inside the FluorSTAR Optima fluorescent microplate reader for 2 hours while Cy 3.5 signal readings in the (Ex544, Em590) channel were taken every 10 minutes. […] The readings were plotted as bar charts in Prism software. […]
# unstable plaques = experiment: In vivo treatment of tandem stenosis mice, plaque collagen quantification (Picrosirius Red); design: species or system mouse; settings: tandem stenosis ApoE knock out mice, 2 tail vein injections 2 weeks apart, killed 2 weeks after second dose, PBS 14.40±4.522
# Description: As described elsewhere herein, at 12 weeks of age and 6 weeks after commencement of high fat diet, ApoE−/− mice (C57BL/6J background) were anaesthetized by intraperitoneal injection of a mixture of ketamine (100 mg/kg) and xylazine (10 mg/kg). An incision was made in the neck and the right common carotid artery exposed by dissecting away circumferential connective tissue. A tandem stenosis with 150 μm outer diameter was introduced with the distal stenosis placed 1 mm from the carotid artery bifurcation and the proximal stenosis 3 mm from the distal stenosis. A 6-0 blue braided polyester fibre suture was tied around the carotid artery and a 150 μm needle to achieve the stenosis diameter of 150 μm and the needle was subsequently removed after the suture was secured. The incision wound was sutured close and the mice resumed their high fat diet. […]
# Collagen quantification of the Picrosirius Red slides were performed using Image J software (National Institute of Health USA). […] For each section, the quantity of plaque collagen is expressed as the percentage of collagen within the plaque: […]
# All quantitative data was analysed by PRISM 6 (GraphPad Software Inc.) and reported as mean +/− one standard deviation. […] Unpaired t test with Welch's correction was also used to analyse the collagen quantification data for the mouse in vivo treatment experiments. […]
smiles,measurement,setting,value
O=C1OC2(c3ccccc31)c1ccc3cc(O)ccc3c1Oc1c2ccc2cc(O)ccc12 [Naphthofluorescein],Cy3.5 increase (MMP14 FRET peptide),"MMP14; HT1080 cells treated with 20 μM unaltered free Naphthofluorescein for 1 week, time zero to 120 minutes",125.0±17.04
same,"Cy3.5 increase (MMP14 FRET peptide), pH 5 rendered drug","MMP14; HT1080 cells, Naphthofluorescein pre-treated in HCl solution at pH 5 for 30 minutes then neutralised with NaOH",126.7±2.728
same,collagen percentage of the plaque area,unstable plaques,18.87+5.308 percentage of the plaque area
